Legend:
[1] = biological target: T1, 5-hydroxytryptamine receptor 1A (Rattus norvegicus, UniProt P19327); experiment: Displacement of [3H]-8-OH-DPAT from 5HT1A receptor in rat hippocampus; type: tissue-based
T1 sequence (P19327 whole entry): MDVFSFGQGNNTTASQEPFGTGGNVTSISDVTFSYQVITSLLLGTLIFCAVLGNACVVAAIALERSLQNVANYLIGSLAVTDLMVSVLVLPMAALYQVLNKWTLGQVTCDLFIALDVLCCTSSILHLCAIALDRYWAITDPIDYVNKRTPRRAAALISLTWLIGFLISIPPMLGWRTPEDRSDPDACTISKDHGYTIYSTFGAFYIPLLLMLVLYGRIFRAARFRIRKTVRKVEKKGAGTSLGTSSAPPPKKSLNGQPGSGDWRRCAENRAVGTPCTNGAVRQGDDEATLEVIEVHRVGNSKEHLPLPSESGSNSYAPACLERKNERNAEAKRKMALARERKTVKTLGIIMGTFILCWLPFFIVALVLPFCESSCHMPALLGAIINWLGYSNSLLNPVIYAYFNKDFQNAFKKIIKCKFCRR

[2] = biological target: 5-hydroxytryptamine receptor 2A (Rattus norvegicus, UniProt P14842); experiment: Displacement of [3H]-ketanserin from 5HT2A receptor in rat cortical membrane; type: cell membranes
5-hydroxytryptamine receptor 2A, sequence (P14842 whole entry): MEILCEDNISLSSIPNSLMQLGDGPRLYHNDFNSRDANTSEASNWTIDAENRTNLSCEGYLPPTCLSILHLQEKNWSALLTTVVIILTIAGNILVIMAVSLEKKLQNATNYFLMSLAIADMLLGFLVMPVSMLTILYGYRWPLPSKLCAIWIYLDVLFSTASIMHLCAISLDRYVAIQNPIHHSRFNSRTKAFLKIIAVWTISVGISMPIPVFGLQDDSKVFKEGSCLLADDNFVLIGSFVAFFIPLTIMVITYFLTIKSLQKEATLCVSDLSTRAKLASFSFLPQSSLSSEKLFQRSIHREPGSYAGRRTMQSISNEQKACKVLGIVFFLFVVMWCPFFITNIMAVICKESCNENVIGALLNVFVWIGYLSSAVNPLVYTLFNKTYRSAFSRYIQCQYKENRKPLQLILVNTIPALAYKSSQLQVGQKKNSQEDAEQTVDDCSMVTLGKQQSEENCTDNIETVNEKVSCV

[3] = tested on: Mus musculus; experiment: Analgesic activity in ip dosed mouse assessed as inhibition of acetic acid-induced writhing response administered 0.5 to 1 hr before acetic acid challenge; type: functional
[4] = Half life in human liver microsomes by LC/MS/MS; type: ADME, Microsome
[5] = Half life in rat liver microsomes by LC/MS/MS; type: ADME, Microsome
[6] = tested on: Mus musculus; experiment: Analgesic activity in mouse assessed as inhibition of acetic acid-induced writhing response at 10 mg/kg, ip administered 0.5 to 1 hr before acetic acid challenge; type: functional; conditions: route intraperitoneal
[7] = tested on: Mus musculus; experiment: Analgesic activity in mouse assessed as inhibition of acetic acid-induced writhing response at 10 mg/kg, po administered 0.5 to 1 hr before acetic acid challenge; type: functional
[8] = biological target: T2, 5-hydroxytryptamine receptor 1A (Rattus norvegicus) (UniProt P19327); experiment: Displacement of [3H]-8-OH-DPAT from 5HT1A receptor in rat hippocampus at 1 uM; type: tissue-based
T2 sequence (whole entry): T1 sequence (P19327 whole entry)

[9] = biological target: 5-hydroxytryptamine receptor 2A (Rattus norvegicus) (UniProt P14842); experiment: Displacement of [3H]-ketanserin from 5HT2A receptor in rat cortical membrane at 1 uM; type: cell membranes
5-hydroxytryptamine receptor 2A (Rattus norvegicus), sequence (P14842 whole entry): as above

[10] = tested on: Mus musculus; experiment: Neurotoxicity in mouse at 50 mg/kg, ip by rotarod test; type: toxicity, organism-based; design: dose 50 mg/kg, route intraperitoneal; conditions: in vivo
[11] = Neurotoxicity in po dosed mouse by rotarod test; type: toxicity, organism-based; conditions: in vivo
[12] = Neurotoxicity in ip dosed mouse by rotarod test; type: toxicity, organism-based; conditions: in vivo
[13] = tested on: Mus musculus; experiment: Analgesic activity in po dosed mouse assessed as inhibition of acetic acid-induced writhing response administered 0.5 to 1 hr before acetic acid challenge; type: functional
[14] = tested on: Mus musculus; experiment: Antinociceptive activity in po dosed mouse by hot plate test; type: functional
[15] = tested on: Mus musculus; experiment: Antinociceptive activity in late phase po dosed mouse by formalin test; type: functional
[16] = tested on: Rattus norvegicus; experiment: Antiinflammatory activity in po dosed rat persistent inflammatory pain model assessed as inhibition of carrageenan-induced mechanical hyperalgesia; type: functional

NC(=O)O[C@H](CCN1CCN(c2ccccc2)CC1)c1ccccc1
IC50 [1]: 534 nM
IC50 [2]: 62 nM
ED50 [3]: 0.18 mg/kg
half-life [4]: 62 min
half-life [5]: 8 min

NC(=O)O[C@@H](CCN1CCN(c2ccccc2)CC1)c1ccccc1
IC50 [1]: 772 nM
IC50 [2]: 1020 nM
inhibition in vivo at 10 mg/kg [6]: 87.8%

COc1ccc(C(CCN2CCN(c3ccc(OC)cc3)CC2)OC(N)=O)cc1 (configuration not stated)
inhibition in vivo at 10 mg/kg [7]: 53%

O=C(CCN1CCN(c2ccccc2)CC1)c1ccccc1
IC50 [1]: 47.5 nM
IC50 [2]: 1070 nM
inhibition in vivo at 10 mg/kg [6]: 37.2%

O[C@H](CCN1CCN(c2ccccc2)CC1)c1ccccc1
IC50 [1]: 174 nM
IC50 [2]: 452 nM
inhibition in vivo at 10 mg/kg [6]: 70.1%

O[C@@H](CCN1CCN(c2ccccc2)CC1)c1ccccc1
IC50 [1]: 495 nM
IC50 [2]: 289 nM
inhibition in vivo at 10 mg/kg [6]: 66.7%

NC(=O)OC(CCN1CCN(c2ccccc2)CC1)c1ccc(F)cc1 (configuration not stated)
inhibition [8]: 65.5%
inhibition [9]: 84.7%
inhibition in vivo at 10 mg/kg [6]: 99%
Activity [10]: Non-toxic
TD50 [11]: 141 mg/kg
half-life [4]: 18 min

COc1ccc(N2CCN(CCC(OC(N)=O)c3ccccc3)CC2)cc1 (racemic)
IC50 [1]: 1980 nM
inhibition in vivo at 10 mg/kg [7]: 72%
ED50 [3]: 0.14 mg/kg
TD50 [11]: 122 mg/kg
half-life [4]: 124 min

NC(=O)OC(CCN1CCN(c2ccccc2)CC1)c1ccccc1 (racemic)
ED50 [3]: 0.49 mg/kg
TD50 [12]: 52.3 mg/kg
TD50 [11]: 124 mg/kg
half-life [4]: 19 min

COc1ccc(N2CCN(CCC(OC(N)=O)c3ccc(Cl)cc3)CC2)cc1 (single isomer, unassigned)
inhibition in vivo at 10 mg/kg [7]: 51%

COc1ccc(N2CCN(CCC(OC(N)=O)c3ccc(Cl)c(Cl)c3)CC2)cc1 (single isomer, unassigned)
inhibition in vivo at 10 mg/kg [7]: 61%

COc1ccc(N2CCN(CCC(OC(N)=O)c3ccc(C)c(C)c3)CC2)cc1 (single isomer, unassigned)
inhibition in vivo at 10 mg/kg [7]: 58%

COc1ccc(N2CCN(CCC(OC(N)=O)c3ccc(Cl)cc3Cl)CC2)cc1 (single isomer, unassigned)
inhibition in vivo at 10 mg/kg [7]: 16%

COc1ccc(N2CCN(CCC(OC(N)=O)c3ccc(Cl)c(C(F)(F)F)c3)CC2)cc1 (single isomer, unassigned)
inhibition in vivo at 10 mg/kg [7]: 46%

COc1ccc(N2CCN(CCC(OC(N)=O)c3ccc(C)cc3C)CC2)cc1 (single isomer, unassigned)
inhibition in vivo at 10 mg/kg [7]: 62%

Cc1ccc(C(CCN2CCN(c3ccccc3)CC2)OC(N)=O)cc1 (single isomer, unassigned)
inhibition [8]: 59.6%
inhibition [9]: 85.6%
inhibition in vivo at 10 mg/kg [6]: 100%

NC(=O)OC(CCN1CCN(c2ccccc2Cl)CC1)c1ccccc1 (single isomer, unassigned)
IC50 [1]: 52500 nM
IC50 [2]: > 100000 nM

NC(=O)OC(CCN1CCN(c2ccccc2F)CC1)c1ccccc1 (single isomer, unassigned)
TD50 [12]: 44.7 mg/kg

Cc1ccccc1N1CCN(CCC(OC(N)=O)c2ccccc2)CC1 (single isomer, unassigned)
IC50 [1]: 149 nM
IC50 [2]: 78.3 nM

COc1cccc(N2CCN(CCC(OC(N)=O)c3ccccc3)CC2)c1 (single isomer, unassigned)
inhibition in vivo at 10 mg/kg [6]: 55%

Cc1cccc(N2CCN(CCC(OC(N)=O)c3ccccc3)CC2)c1 (single isomer, unassigned)
IC50 [1]: 59.6 nM
IC50 [2]: 92.5 nM

NC(=O)OC(CCN1CCN(c2ccc(Cl)cc2)CC1)c1ccccc1 (single isomer, unassigned)
inhibition in vivo at 10 mg/kg [6]: 52%

NC(=O)OC(CCN1CCN(c2ccc(C(F)(F)F)cc2)CC1)c1ccccc1 (single isomer, unassigned)
IC50 [1]: 7220 nM
IC50 [2]: 2110 nM

Cc1ccc(N2CCN(CCC(OC(N)=O)c3ccccc3)CC2)cc1 (single isomer, unassigned)
IC50 [1]: 1280 nM
IC50 [2]: 369 nM

Cc1ccc(N2CCN(CCC(OC(N)=O)c3ccccc3)CC2)c(C)c1 (single isomer, unassigned)
inhibition in vivo at 10 mg/kg [7]: 34%

COc1ccc(N2CCN(CCC(OC(N)=O)c3ccccc3)CC2)c(OC)c1 (single isomer, unassigned)
inhibition in vivo at 10 mg/kg [7]: 19%

NC(=O)OC(CCN1CCN(c2ccccc2O)CC1)c1ccccc1 (single isomer, unassigned)
inhibition in vivo at 10 mg/kg [7]: 37%

NC(=O)OC(CCN1CCN(c2ccc(C(F)(F)F)cc2[N+](=O)[O-])CC1)c1ccccc1 (single isomer, unassigned)
inhibition in vivo at 10 mg/kg [7]: 50%

NC(=O)OC(CCN1CCN(c2ccc(Cl)c(C(F)(F)F)c2)CC1)c1ccccc1 (single isomer, unassigned)
inhibition in vivo at 10 mg/kg [7]: 52%

COc1cc(OC)cc(N2CCN(CCC(OC(N)=O)c3ccccc3)CC2)c1 (single isomer, unassigned)
inhibition in vivo at 10 mg/kg [7]: 13%

Cc1cccc(C)c1N1CCN(CCC(OC(N)=O)c2ccccc2)CC1 (single isomer, unassigned)
inhibition in vivo at 10 mg/kg [7]: 48%

NC(=O)OC(CCN1CCN(c2ccc(OC(F)(F)F)cc2)CC1)c1ccccc1 (single isomer, unassigned)
inhibition in vivo at 10 mg/kg [7]: 18%

NC(=O)OC(CCN1CCN(c2ccc(F)cc2)CC1)c1ccc(F)cc1 (single isomer, unassigned)
inhibition [8]: 60.9%
inhibition [9]: 93.9%
inhibition in vivo at 10 mg/kg [7]: 52%

NC(=O)OC(CCN1CCN(c2ccc([N+](=O)[O-])cc2)CC1)c1ccc(F)cc1 (single isomer, unassigned)
inhibition [8]: 29.6%
inhibition [9]: 29.6%
inhibition in vivo at 10 mg/kg [7]: 70%
TD50 [11]: 97.8 mg/kg

NC(=O)OC(CCN1CCN(c2ccc(O)cc2)CC1)c1ccc(F)cc1 (single isomer, unassigned)
half-life [4]: 149 min

NC(=O)OC(CCN1CCN(c2ccccc2)CC1)c1ccc(Cl)cc1 (single isomer, unassigned)
inhibition [8]: 64.6%
inhibition [9]: 84.6%
ED50 [13]: 2.1 mg/kg
half-life [4]: 15 min

NC(=O)OC(CCN1CCN(c2ccccc2)CC1)c1cccc([N+](=O)[O-])c1 (single isomer, unassigned)
inhibition [8]: 74.6%
inhibition [9]: 86.4%
inhibition in vivo at 10 mg/kg [7]: 48%
inhibition in vivo at 10 mg/kg [6]: 100%

NC(=O)OC(CCN1CCN(c2ccccc2)CC1)c1ccc([N+](=O)[O-])cc1 (single isomer, unassigned)
inhibition [8]: 81.4%
inhibition [9]: 88%
inhibition in vivo at 10 mg/kg [7]: 91.2%
inhibition in vivo at 10 mg/kg [6]: 100%
Activity [10]: Toxic
TD50 [11]: 53.4 mg/kg

CC(C)(C)c1ccc(C(CCN2CCN(c3ccccc3)CC2)OC(N)=O)cc1 (single isomer, unassigned)
inhibition [8]: 44.4%
inhibition [9]: 98.8%
inhibition in vivo at 10 mg/kg [7]: 62%

NC(=O)OC(CCN1CCN(c2ccccc2)CC1)c1cccc(Cl)c1 (single isomer, unassigned)
inhibition [8]: 76.4%
inhibition [9]: 93.7%
inhibition in vivo at 10 mg/kg [7]: 59%
inhibition in vivo at 10 mg/kg [6]: 100%

COc1ccc(C(CCN2CCN(c3ccccc3)CC2)OC(N)=O)cc1 (single isomer, unassigned)
inhibition [8]: 67.7%
inhibition [9]: 82%
inhibition in vivo at 10 mg/kg [7]: 43%
inhibition in vivo at 10 mg/kg [6]: 100%
Activity [10]: Toxic

CN1CC[C@]23c4c5ccc(O)c4O[C@H]2[C@@H](O)C=C[C@H]3[C@H]1C5 [MORPHINE]
ED50 [13]: 5.57 mg/kg
ED50 [3]: 0.96 mg/kg
ED50 [14]: 13.5 mg/kg
ED50 [15]: 9.15 mg/kg
ED50 [16]: 0.6 mg/kg
